The target in this assay is T1, Human Cav2.2 channels (Homo sapiens, UniProt Q00975).
T1 construct: expressed in transfected cells
The assay is described as follows: Fluorescent assay for Cav2.2 channels using potassium depolarization to initiate channel opening. The assay is classed as cell-based. As to conditions: for inhibition at 10 µM: 10 μM compound, read-out: Cav 2.2 Activity % Inh at 10 μM; for inhibition at 30 µM: 30 μM compound, read-out: Cav 2.2 Activity % Inh at 30 μM; for IC50: 30 mM K (block of open and inactivated channels), read-out: Cav 2.2 Activity IC50 at 30 mM K. From the text: Human Cav2.2 channels were stably expressed in HEK293 cells along with alpha2-delta and beta subunits of voltage-gated calcium channels. An inwardly rectifying potassium channel (Kir2.3) was also expressed in these cells to allow more precise control of the cell membrane potential by extracellular potassium concentration. At low bath potassium concentration, the membrane potential is relatively negative, and is depolarized as the bath potassium concentration is raised. In this way, the bath potassium concentration can be used to regulate the voltage-dependent conformations of the channels. […] After the incubation period, Cav2.2 channel opening is triggered by addition of higher concentration of potassium (70 mM final concentration) to further depolarize the cell. The degree of state-dependent block can be estimated from the inhibitory potency of compounds after incubation in different potassium concentrations.
Calcium influx through Cav2.2 channels is determined using a calcium sensitive fluorescent dye in combination with a fluorescent plate reader. Fluorescent changes were measured with either a VIPR (Aurora Instruments) or FLIPR (Molecular Devices) plate reader.
• 1. Seed cells in Poly-D-Lysine Coated 96 or 384-well plate and keep in a 37° C.-10% CO2 incubator overnight • 2. […] Incubate in the dark at 25° C. for 60-70 min • 5. Remove dye, wash cells with 0.1 mL (96-well plate) or 0.06 mL (384-well plate) of 4, 12, 25, or 30 mM Potassium Pre-polarization Buffer (PPB) • 6. […] Incubate in the dark at 25° C. for 30 min • 8. Read cell plate on VIPR instrument, Excitation=480 nm, Emission=535 nm • 9. With VIPR continuously reading, add 0.1 mL (96-well plate) or 0.03 mL (384-well plate) of Depolarization Buffer (DB), which is 2× the final assay concentration, to the cell plate.

T1 sequence (Q00975 whole entry): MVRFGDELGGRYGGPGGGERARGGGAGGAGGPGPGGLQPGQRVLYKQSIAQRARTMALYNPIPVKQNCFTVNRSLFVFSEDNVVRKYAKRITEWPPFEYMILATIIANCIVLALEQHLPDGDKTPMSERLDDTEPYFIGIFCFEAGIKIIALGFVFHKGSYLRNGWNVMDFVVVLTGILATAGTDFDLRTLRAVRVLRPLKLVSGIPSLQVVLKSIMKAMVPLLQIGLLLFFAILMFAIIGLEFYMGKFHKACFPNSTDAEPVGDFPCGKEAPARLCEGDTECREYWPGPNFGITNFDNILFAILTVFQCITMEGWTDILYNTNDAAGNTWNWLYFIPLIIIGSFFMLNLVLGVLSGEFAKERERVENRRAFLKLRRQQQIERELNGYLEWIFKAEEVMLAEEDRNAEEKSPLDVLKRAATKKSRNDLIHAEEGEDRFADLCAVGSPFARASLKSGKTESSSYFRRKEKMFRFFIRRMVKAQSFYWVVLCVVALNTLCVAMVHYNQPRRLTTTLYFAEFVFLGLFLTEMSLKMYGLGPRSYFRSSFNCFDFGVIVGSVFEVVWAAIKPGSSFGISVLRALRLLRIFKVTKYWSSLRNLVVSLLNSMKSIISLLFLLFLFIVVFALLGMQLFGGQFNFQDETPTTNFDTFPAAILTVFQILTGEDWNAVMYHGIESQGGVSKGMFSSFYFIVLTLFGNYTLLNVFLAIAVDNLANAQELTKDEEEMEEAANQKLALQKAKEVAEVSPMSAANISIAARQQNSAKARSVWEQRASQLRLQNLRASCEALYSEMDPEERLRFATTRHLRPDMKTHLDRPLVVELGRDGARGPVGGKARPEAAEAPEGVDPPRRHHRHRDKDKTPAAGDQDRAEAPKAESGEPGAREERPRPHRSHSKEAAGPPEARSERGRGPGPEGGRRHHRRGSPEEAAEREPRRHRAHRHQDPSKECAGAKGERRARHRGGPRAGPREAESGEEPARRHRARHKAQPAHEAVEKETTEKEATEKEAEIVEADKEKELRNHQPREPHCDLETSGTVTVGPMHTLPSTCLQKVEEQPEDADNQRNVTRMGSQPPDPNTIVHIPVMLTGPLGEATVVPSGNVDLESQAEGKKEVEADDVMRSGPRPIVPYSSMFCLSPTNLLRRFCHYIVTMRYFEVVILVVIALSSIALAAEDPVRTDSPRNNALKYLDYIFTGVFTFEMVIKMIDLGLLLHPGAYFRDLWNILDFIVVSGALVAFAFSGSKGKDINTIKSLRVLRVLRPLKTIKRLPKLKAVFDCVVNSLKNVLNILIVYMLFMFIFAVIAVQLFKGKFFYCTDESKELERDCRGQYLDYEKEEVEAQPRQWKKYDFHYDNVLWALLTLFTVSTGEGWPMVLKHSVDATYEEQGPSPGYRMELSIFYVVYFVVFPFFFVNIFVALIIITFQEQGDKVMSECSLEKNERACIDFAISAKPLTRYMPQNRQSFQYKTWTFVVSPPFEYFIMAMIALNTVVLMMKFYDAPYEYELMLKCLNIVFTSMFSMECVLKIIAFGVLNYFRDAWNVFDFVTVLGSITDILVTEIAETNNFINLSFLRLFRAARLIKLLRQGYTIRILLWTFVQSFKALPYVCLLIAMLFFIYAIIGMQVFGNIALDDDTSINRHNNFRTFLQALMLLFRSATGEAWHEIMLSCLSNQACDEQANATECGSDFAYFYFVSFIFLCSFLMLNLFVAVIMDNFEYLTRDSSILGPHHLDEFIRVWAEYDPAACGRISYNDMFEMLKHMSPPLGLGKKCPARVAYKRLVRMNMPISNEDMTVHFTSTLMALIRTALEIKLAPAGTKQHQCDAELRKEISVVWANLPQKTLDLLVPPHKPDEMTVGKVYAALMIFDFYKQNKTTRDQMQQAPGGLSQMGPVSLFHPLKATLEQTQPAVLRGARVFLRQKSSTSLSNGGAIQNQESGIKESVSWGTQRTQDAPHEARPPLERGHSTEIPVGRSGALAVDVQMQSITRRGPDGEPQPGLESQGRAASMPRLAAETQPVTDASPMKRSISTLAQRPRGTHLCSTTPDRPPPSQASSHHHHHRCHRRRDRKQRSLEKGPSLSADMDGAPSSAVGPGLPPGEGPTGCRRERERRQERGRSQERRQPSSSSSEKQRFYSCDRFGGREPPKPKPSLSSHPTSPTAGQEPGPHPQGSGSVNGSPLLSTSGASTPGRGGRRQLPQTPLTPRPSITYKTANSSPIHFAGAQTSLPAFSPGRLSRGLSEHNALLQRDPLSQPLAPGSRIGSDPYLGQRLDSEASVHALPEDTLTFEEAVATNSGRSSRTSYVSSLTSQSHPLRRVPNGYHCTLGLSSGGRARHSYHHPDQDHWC
T1 sequence (P54289 25-1103 partner): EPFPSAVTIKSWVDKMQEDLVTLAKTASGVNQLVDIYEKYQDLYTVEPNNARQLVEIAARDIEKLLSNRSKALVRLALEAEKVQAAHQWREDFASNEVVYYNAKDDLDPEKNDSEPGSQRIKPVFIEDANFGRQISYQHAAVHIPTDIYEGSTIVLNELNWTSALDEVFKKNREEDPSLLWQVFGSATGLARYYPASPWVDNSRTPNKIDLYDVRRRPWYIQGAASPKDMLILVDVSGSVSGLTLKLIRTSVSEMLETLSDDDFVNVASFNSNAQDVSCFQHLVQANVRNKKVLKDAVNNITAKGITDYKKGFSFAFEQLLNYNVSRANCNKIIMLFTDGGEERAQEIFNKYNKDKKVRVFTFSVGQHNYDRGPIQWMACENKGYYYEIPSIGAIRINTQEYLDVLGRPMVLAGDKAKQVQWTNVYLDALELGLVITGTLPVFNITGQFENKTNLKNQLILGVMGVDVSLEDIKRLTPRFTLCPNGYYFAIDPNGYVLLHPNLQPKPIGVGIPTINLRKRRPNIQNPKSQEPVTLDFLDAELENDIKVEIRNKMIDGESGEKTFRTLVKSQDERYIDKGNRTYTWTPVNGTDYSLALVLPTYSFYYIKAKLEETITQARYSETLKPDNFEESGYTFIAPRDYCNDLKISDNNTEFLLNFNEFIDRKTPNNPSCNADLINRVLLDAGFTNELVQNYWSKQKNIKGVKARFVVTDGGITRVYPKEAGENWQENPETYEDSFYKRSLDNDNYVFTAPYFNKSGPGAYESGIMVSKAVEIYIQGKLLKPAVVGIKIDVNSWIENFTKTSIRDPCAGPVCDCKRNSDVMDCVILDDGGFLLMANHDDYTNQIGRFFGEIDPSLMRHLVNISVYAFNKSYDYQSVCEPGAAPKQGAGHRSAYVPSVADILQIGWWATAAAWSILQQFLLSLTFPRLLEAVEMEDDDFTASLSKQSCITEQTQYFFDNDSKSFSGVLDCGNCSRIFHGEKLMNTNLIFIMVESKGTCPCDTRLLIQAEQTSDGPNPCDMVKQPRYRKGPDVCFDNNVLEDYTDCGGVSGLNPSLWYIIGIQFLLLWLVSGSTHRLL
T1 sequence (P54284 whole entry partner): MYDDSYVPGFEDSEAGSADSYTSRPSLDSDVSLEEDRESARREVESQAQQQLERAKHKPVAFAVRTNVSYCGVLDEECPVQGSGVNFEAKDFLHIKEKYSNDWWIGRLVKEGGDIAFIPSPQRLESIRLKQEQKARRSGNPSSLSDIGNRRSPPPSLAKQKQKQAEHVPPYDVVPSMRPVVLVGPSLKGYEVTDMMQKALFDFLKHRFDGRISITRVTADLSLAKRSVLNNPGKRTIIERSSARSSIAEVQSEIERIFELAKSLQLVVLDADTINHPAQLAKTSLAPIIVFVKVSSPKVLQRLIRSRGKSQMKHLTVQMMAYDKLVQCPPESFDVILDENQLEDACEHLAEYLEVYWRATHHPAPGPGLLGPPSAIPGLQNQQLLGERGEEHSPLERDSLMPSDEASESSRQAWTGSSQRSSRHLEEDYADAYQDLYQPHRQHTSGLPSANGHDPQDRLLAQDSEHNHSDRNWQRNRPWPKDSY

For the compound `CC(C)(C)c1cc(NC(=O)C2(NCc3ccc(F)cc3F)CCCCC2)cc(C(C)(C)C)c1` [Compound 42, N-(3,5-di-tert-butylphenyl)-1-(2,4-difluorobenzylamino)cyclohexanecarboxamide], the inhibition at 10 µM came out at 70.6% and the inhibition at 30 µM worked out at 80.2%.
Consider `CC(C)(C)c1cc(C(=O)NC2(C(=O)NCc3ccccc3)CCCCC2)cc(C(C)(C)C)n1` [Compound 56, N-(1-(benzylcarbamoyl)cyclohexyl)-2,6-di-tert-butylisonicotinamide], for which the inhibition at 10 µM stood at 84.4%, the inhibition at 30 µM was 92.6% and the half-inhibitory concentration (IC50) was found to be 321 nM.
Consider `COc1ccc(CNC(=O)C2(NC(=O)c3cc(C(C)(C)C#N)cc(C(C)(C)C#N)c3)CCOCC2)cc1` [Compound 115, 4-(3,5-bis(2-cyanopropan-2-yl)benzamido)-N-(4-methoxybenzyl)tetrahydro-2H-pyran-4-carboxamide], for which the inhibition at 10 µM came out at 53.5% and the inhibition at 30 µM was 73.4%.
Turning to `CC(C)(C)c1cc(C(=O)NC2(C(=O)NCc3ccccc3)CCCC2)cc(C(C)(C)C)n1` [Compound 95, N-(1-(benzylcarbamoyl)cyclopentyl)-2,6-di-tert-butylisonicotinamide], the inhibition at 10 µM is 94.6%, the inhibition at 30 µM was determined as 101% and the IC50 came out at 132 nM.
As to `CN(C)c1ccc(CNC(=O)C2(NC(=O)c3cc(C(C)(C)C)cc(C(C)(C)C)c3)CCCCC2)cc1` [Compound 48, 3,5-di-tert-butyl-N-(1-(4-(dimethylamino)benzylcarbamoyl)cyclohexyl)benzamide], the inhibition at 10 µM is 88.7%, the inhibition at 30 µM came out at 90.3% and the IC50 was 371 nM.
With `CC(C)(C)c1cc(C(=O)NC2(C(=O)NCc3ccccc3)CCCC2)cc(C(C)(C)C)c1` [Compound 36, N-(1-(benzylcarbamoyl)cyclopentyl)-3,5-di-tert-butylbenzamide], the inhibition at 10 µM is 92%, the inhibition at 30 µM worked out at 96.4% and the IC50 amounted to 251 nM.
As for `CC(C)(C)c1cc(C(=O)NC2(C(=O)Nc3ccccn3)CC2)cc(C(C)(C)C)n1` [Compound 20, 2,6-di-tert-butyl-N-(1-(pyridin-2-ylcarbamoyl)cyclopropyl)isonicotinamide], the inhibition at 10 µM is 100% and the concentration for half-maximal inhibition (IC50) came out at 102 nM.
Take `COc1c(C(C)(C)C)cc(C(=O)NC2(C(=O)Nc3ccccc3)CCCCC2)cc1C(C)(C)C` [Compound 96, 3,5-di-tert-butyl-4-methoxy-N-(1-(phenylcarbamoyl)cyclohexyl)benzamide]: the inhibition at 10 µM stood at 77.7%, the inhibition at 30 µM is 82.6% and the half-inhibitory concentration (IC50) was 161 nM.
Turning to `Cc1cc(CNC(=O)C2(NC(=O)c3cc(C(C)(C)C)c(O)c(C(C)(C)C)c3)CC2)no1` [Compound 116, 3,5-di-tert-butyl-4-hydroxy-N-(1-((5-methylisoxazol-3-yl)methylcarbamoyl)cyclopropyl)benzamide], the inhibition at 10 µM was 92.5%, the inhibition at 30 µM is 98% and the IC50 was 943 nM.
For the compound `CC(C)(C)c1cc(C(=O)NC2(C(=O)N3CCCC3)CCCCC2)cc(C(C)(C)C)n1` [Compound 66, 2,6-di-tert-butyl-N-(1-(pyrrolidine-1-carbonyl)cyclohexyl)isonicotinamide], the IC50 is 960 nM.
The same measure, in the same setting: as for `CC(C)(C)c1cc(C(=O)NC2(C(=O)N3CCOCC3)CCCCC2)cc(C(C)(C)C)n1` [Compound 98, 2,6-di-tert-butyl-N-(1-(morpholine-4-carbonyl)cyclohexyl)isonicotinamide], the figure is 248 nM.
In the case of `CC(C)(C#N)c1cc(C(=O)NC2(C(=O)NCc3cccc(C(F)(F)F)c3)CCCCC2)ccn1` [Compound 119, 2-(2-cyanopropan-2-yl)-N-(1-(3-(trifluoromethyl)benzylcarbamoyl)cyclohexyl)isonicotinamide], the inhibition at 10 µM came to 63.1%.

What is called IC50 is the midpoint of a concentration-inhibition curve.

The record behind these values is patent US20090270394A1, “CYCLYLAMINE DERIVATIVES AS CALCIUM CHANNEL BLOCKERS” (priority 2008, published 2009).
